{"source": "the kinase profiling compilation of Christmann-Franck et al. (2016)", "assay_in_all_cases": "KINOMEscan competition binding", "details_in_all_cases": "compound 10.0 µM", "key": {"ABL2 (human)": {"biological_target": "ABL2 (human) (UniProt P42684)"}, "ANKK1 (human)": {"biological_target": "ANKK1 (human) (UniProt Q8NFD2)"}, "AURKC (human)": {"biological_target": "AURKC (human) (UniProt Q9UQB9)"}, "BLK (human)": {"biological_target": "BLK (human) (UniProt P51451)"}, "BRSK2 (human)": {"biological_target": "BRSK2 (human) (UniProt Q8IWQ3)"}, "CAMK1G (human)": {"biological_target": "CAMK1G (human) (UniProt Q96NX5)"}, "CAMK4 (human)": {"biological_target": "CAMK4 (human) (UniProt Q16566)", "sequence (Q16566 whole entry, looked up)": "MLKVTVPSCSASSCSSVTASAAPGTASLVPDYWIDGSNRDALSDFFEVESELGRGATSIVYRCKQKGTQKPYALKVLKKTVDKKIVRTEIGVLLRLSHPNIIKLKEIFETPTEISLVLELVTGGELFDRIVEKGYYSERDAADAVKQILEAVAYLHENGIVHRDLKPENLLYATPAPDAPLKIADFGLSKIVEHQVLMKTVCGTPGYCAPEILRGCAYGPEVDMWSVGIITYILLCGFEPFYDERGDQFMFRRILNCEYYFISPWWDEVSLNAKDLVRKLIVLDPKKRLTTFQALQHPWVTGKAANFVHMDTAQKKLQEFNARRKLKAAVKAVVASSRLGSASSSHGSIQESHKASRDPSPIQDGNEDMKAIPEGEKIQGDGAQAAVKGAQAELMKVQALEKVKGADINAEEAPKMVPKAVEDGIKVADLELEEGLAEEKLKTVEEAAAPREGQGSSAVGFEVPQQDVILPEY"}, "CDK14 (human)": {"biological_target": "CDK14 (human) (UniProt O94921)", "sequence (O94921 whole entry, looked up)": "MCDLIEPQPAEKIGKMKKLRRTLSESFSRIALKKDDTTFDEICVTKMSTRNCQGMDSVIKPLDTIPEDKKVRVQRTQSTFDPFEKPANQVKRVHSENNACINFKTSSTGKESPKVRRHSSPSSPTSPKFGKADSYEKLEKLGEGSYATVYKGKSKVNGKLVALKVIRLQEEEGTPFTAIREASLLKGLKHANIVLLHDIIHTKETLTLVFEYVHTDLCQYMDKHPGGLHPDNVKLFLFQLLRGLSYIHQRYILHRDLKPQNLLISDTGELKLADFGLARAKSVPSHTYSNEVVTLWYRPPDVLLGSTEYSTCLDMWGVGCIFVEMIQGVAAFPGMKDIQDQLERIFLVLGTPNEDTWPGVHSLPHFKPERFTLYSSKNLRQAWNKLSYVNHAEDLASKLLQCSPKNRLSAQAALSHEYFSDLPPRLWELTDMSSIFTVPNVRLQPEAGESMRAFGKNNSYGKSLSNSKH"}, "CIT (human)": {"biological_target": "CIT (human) (UniProt O14578)"}, "CSNK1E (human)": {"biological_target": "CSNK1E (human) (UniProt P49674)"}, "CSNK1G3 (human)": {"biological_target": "CSNK1G3 (human) (UniProt Q9Y6M4)"}, "CaMK1 (human)": {"biological_target": "CaMK1 (human) (UniProt Q14012)", "sequence (Q14012 whole entry, looked up)": "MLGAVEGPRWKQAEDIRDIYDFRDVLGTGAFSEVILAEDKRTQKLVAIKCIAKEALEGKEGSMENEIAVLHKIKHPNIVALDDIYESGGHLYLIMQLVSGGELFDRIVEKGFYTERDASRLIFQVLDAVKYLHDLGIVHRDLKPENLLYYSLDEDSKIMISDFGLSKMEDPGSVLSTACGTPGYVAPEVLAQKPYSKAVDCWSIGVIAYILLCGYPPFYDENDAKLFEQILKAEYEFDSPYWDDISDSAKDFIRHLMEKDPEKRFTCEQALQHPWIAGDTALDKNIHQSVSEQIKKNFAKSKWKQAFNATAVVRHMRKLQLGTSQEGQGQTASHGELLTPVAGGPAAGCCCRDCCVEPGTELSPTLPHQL"}, "DAPK3 (human)": {"biological_target": "DAPK3 (human) (UniProt O43293)"}, "[1]": {"tested_on": "EIF2AK4 KD2 (human), Q9P2K8 [S808G]"}, "EPHA7 (human)": {"biological_target": "EPHA7 (human) (UniProt Q15375)"}, "[2]": {"tested_on": "FLT3 (human), P36888 [N841I]"}, "MAP3K3 (human)": {"biological_target": "MAP3K3 (human) (UniProt Q99759)"}, "MAP3K4 (human)": {"biological_target": "MAP3K4 (human) (UniProt Q9Y6R4)"}, "MAP4K5 (human)": {"biological_target": "MAP4K5 (human) (UniProt Q9Y4K4)"}, "MAPK11 (human)": {"biological_target": "MAPK11 (human) (UniProt Q15759)"}, "MELK (human)": {"biological_target": "MELK (human) (UniProt Q14680)"}, "MYLK (human)": {"biological_target": "MYLK (human) (UniProt Q15746)"}, "NEK5 (human)": {"biological_target": "NEK5 (human) (UniProt Q6P3R8)"}, "NTRK1 (human)": {"biological_target": "NTRK1 (human) (UniProt P04629)", "sequence (P04629 whole entry, looked up)": "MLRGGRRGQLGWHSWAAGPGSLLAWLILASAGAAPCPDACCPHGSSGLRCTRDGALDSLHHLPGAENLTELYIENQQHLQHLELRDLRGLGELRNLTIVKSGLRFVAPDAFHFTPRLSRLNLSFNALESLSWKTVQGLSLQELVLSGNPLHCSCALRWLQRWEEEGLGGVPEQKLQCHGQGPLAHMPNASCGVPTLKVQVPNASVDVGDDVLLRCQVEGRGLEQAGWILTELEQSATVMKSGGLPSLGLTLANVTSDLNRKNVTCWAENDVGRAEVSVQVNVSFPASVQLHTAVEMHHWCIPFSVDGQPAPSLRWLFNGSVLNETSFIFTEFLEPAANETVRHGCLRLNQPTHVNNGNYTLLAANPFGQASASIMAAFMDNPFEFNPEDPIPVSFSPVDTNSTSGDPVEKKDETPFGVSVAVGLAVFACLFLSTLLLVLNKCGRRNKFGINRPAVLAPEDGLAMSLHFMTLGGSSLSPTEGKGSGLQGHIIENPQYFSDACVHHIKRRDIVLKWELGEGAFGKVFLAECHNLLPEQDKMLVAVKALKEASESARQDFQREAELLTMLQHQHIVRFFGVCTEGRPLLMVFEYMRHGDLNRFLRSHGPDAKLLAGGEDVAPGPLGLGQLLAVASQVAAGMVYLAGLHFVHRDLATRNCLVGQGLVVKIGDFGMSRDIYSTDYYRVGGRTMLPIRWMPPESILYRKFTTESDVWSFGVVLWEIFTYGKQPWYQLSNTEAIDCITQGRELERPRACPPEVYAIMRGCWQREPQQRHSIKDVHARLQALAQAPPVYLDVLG"}, "NUAK2 (human)": {"biological_target": "NUAK2 (human) (UniProt Q9H093)"}, "PDPK1 (human)": {"biological_target": "PDPK1 (human) (UniProt O15530)"}, "PIP4K2B (human)": {"biological_target": "PIP4K2B (human) (UniProt P78356)"}, "PKN1 (human)": {"biological_target": "PKN1 (human) (UniProt Q16512)"}, "PLK3 (human)": {"biological_target": "PLK3 (human) (UniProt Q9H4B4)"}, "PRKCD (human)": {"biological_target": "PRKCD (human) (UniProt Q05655)", "sequence (Q05655 whole entry, looked up)": "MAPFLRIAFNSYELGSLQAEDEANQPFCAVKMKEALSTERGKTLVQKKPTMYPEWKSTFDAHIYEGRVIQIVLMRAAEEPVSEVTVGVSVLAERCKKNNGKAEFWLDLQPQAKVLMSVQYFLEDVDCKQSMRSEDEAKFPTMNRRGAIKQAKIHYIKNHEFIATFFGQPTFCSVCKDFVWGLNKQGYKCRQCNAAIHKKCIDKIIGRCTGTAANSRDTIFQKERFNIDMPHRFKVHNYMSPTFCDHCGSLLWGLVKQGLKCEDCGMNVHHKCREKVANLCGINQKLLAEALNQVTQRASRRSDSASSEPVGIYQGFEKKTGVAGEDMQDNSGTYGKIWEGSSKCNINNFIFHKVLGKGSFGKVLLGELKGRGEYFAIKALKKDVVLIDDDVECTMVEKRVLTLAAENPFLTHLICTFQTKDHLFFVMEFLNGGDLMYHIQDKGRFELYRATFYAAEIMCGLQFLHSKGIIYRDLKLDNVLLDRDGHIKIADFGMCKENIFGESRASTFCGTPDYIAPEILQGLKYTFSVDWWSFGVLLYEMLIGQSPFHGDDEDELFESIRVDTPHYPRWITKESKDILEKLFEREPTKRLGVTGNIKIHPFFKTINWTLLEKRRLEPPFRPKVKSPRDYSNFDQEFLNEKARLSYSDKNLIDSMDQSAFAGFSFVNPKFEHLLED"}, "PTK2B (human)": {"biological_target": "PTK2B (human) (UniProt Q14289)"}, "PTK6 (human)": {"biological_target": "PTK6 (human) (UniProt Q13882)"}, "RIOK1 (human)": {"biological_target": "RIOK1 (human) (UniProt Q9BRS2)", "sequence (Q9BRS2 whole entry, looked up)": "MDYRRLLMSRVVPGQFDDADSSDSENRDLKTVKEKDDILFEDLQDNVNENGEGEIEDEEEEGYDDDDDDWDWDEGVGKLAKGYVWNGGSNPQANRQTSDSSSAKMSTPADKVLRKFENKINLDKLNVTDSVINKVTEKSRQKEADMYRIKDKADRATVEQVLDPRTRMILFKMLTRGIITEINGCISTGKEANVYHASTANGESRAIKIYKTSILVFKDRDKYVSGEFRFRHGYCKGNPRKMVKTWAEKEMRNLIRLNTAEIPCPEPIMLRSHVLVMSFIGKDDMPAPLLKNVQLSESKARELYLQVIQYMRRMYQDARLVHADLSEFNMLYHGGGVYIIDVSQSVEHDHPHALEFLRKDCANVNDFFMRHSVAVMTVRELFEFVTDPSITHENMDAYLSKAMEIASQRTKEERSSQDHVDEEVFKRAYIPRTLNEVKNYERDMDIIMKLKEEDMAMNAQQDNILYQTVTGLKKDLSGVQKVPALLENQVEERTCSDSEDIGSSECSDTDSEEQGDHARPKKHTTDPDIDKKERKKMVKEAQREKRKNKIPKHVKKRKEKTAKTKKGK"}, "STK35 (human)": {"biological_target": "STK35 (human) (UniProt Q8TDR2)", "sequence (Q8TDR2 whole entry, looked up)": "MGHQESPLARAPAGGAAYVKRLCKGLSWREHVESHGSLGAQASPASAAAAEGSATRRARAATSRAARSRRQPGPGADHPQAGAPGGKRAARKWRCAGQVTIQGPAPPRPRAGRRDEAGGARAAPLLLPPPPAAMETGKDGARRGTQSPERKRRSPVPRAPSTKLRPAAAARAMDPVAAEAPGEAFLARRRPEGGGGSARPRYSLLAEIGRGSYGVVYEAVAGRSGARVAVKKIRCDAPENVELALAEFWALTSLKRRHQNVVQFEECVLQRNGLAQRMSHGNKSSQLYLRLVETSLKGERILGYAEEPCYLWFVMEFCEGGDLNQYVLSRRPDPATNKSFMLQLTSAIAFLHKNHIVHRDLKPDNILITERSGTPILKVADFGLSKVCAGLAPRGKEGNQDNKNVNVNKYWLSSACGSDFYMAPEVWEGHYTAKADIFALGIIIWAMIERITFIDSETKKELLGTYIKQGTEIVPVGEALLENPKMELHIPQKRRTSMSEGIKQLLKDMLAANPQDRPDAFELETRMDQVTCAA"}, "TLK1 (human)": {"biological_target": "TLK1 (human) (UniProt Q9UKI8)"}, "TNIK (human)": {"biological_target": "TNIK (human) (UniProt Q9UKE5)"}, "TNK1 (human)": {"biological_target": "TNK1 (human) (UniProt Q13470)", "sequence (Q13470 whole entry, looked up)": "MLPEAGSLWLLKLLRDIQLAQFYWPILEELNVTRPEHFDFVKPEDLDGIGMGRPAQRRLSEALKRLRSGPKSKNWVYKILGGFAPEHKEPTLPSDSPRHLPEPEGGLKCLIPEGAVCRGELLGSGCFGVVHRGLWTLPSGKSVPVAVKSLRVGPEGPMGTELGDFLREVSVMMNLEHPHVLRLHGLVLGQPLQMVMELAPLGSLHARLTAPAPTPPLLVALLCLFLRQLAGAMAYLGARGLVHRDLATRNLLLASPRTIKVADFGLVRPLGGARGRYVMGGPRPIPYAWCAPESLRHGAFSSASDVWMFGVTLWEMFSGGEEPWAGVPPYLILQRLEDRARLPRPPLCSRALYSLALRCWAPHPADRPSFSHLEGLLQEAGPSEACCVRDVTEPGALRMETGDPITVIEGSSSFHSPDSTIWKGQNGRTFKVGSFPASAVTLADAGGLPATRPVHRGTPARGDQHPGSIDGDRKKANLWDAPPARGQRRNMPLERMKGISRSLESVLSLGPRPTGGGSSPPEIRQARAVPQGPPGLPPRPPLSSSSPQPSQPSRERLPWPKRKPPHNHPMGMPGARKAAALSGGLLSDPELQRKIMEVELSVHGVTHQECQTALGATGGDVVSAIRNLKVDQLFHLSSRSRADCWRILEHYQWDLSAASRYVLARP"}, "TNNI3K (human)": {"biological_target": "TNNI3K (human) (UniProt Q59H18)"}, "TSSK1B (human)": {"biological_target": "TSSK1B (human) (UniProt Q9BXA7)", "sequence (Q9BXA7 whole entry, looked up)": "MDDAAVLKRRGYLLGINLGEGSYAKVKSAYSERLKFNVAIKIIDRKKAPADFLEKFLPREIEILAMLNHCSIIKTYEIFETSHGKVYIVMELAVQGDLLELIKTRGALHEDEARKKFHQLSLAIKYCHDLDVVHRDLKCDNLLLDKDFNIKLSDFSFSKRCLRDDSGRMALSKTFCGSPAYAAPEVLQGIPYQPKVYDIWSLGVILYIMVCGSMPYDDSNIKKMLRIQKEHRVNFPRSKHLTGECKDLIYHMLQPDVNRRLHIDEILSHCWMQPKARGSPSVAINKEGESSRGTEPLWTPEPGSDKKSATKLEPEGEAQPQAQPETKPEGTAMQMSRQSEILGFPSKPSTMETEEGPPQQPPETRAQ"}, "WEE2 (human)": {"biological_target": "WEE2 (human) (UniProt P0C1S8)"}}}
{"compound": "CCC(=O)N1CCN(c2ccc(-n3c(=O)ccc4cnc5ccc(-c6cnc7ccccc7c6)cc5c43)cc2C(F)(F)F)CC1", "values": [{"measurement": "kinase still bound, per cent of control", "setting": "ABL2 (human)", "result": 99, "unit": "%"}, {"measurement": "kinase still bound, per cent of control", "setting": "ANKK1 (human)", "result": 93, "unit": "%"}, {"measurement": "kinase still bound, per cent of control", "setting": "AURKC (human)", "result": 91, "unit": "%"}, {"measurement": "kinase still bound, per cent of control", "setting": "BLK (human)", "result": 75, "unit": "%"}, {"measurement": "kinase still bound, per cent of control", "setting": "BRSK2 (human)", "result": 76, "unit": "%"}, {"measurement": "kinase still bound, per cent of control", "setting": "CAMK1G (human)", "result": 74, "unit": "%"}, {"measurement": "kinase still bound, per cent of control", "setting": "CAMK4 (human)", "result": 90, "unit": "%"}, {"measurement": "kinase still bound, per cent of control", "setting": "CDK14 (human)", "result": 99, "unit": "%"}, {"measurement": "kinase still bound, per cent of control", "setting": "CIT (human)", "result": 59, "unit": "%"}, {"measurement": "kinase still bound, per cent of control", "setting": "CSNK1E (human)", "result": 59, "unit": "%"}, {"measurement": "kinase still bound, per cent of control", "setting": "CSNK1G3 (human)", "result": 100, "unit": "%"}, {"measurement": "kinase still bound, per cent of control", "setting": "CaMK1 (human)", "result": 50, "unit": "%"}, {"measurement": "kinase still bound, per cent of control", "setting": "DAPK3 (human)", "result": 82, "unit": "%"}, {"measurement": "kinase still bound, per cent of control", "setting": "[1]", "result": 99, "unit": "%"}, {"measurement": "kinase still bound, per cent of control", "setting": "EPHA7 (human)", "result": 98, "unit": "%"}, {"measurement": "kinase still bound, per cent of control", "setting": "[2]", "result": 8.8, "unit": "%"}, {"measurement": "kinase still bound, per cent of control", "setting": "MAP3K3 (human)", "result": 75, "unit": "%"}, {"measurement": "kinase still bound, per cent of control", "setting": "MAP3K4 (human)", "result": 47, "unit": "%"}, {"measurement": "kinase still bound, per cent of control", "setting": "MAP4K5 (human)", "result": 8.1, "unit": "%"}, {"measurement": "kinase still bound, per cent of control", "setting": "MAPK11 (human)", "result": 53, "unit": "%"}, {"measurement": "kinase still bound, per cent of control", "setting": "MELK (human)", "result": 50, "unit": "%"}, {"measurement": "kinase still bound, per cent of control", "setting": "MYLK (human)", "result": 87, "unit": "%"}, {"measurement": "kinase still bound, per cent of control", "setting": "NEK5 (human)", "result": 5.8, "unit": "%"}, {"measurement": "kinase still bound, per cent of control", "setting": "NTRK1 (human)", "result": 64, "unit": "%"}, {"measurement": "kinase still bound, per cent of control", "setting": "NUAK2 (human)", "result": 100, "unit": "%"}, {"measurement": "kinase still bound, per cent of control", "setting": "PDPK1 (human)", "result": 100, "unit": "%"}, {"measurement": "kinase still bound, per cent of control", "setting": "PIP4K2B (human)", "result": 100, "unit": "%"}, {"measurement": "kinase still bound, per cent of control", "setting": "PKN1 (human)", "result": 92, "unit": "%"}, {"measurement": "kinase still bound, per cent of control", "setting": "PLK3 (human)", "result": 87, "unit": "%"}, {"measurement": "kinase still bound, per cent of control", "setting": "PRKCD (human)", "result": 82, "unit": "%"}, {"measurement": "kinase still bound, per cent of control", "setting": "PTK2B (human)", "result": 100, "unit": "%"}, {"measurement": "kinase still bound, per cent of control", "setting": "PTK6 (human)", "result": 51, "unit": "%"}, {"measurement": "kinase still bound, per cent of control", "setting": "RIOK1 (human)", "result": 81, "unit": "%"}, {"measurement": "kinase still bound, per cent of control", "setting": "STK35 (human)", "result": 18, "unit": "%"}, {"measurement": "kinase still bound, per cent of control", "setting": "TLK1 (human)", "result": 100, "unit": "%"}, {"measurement": "kinase still bound, per cent of control", "setting": "TNIK (human)", "result": 39, "unit": "%"}, {"measurement": "kinase still bound, per cent of control", "setting": "TNK1 (human)", "result": 6.8, "unit": "%"}, {"measurement": "kinase still bound, per cent of control", "setting": "TNNI3K (human)", "result": 66, "unit": "%"}, {"measurement": "kinase still bound, per cent of control", "setting": "TSSK1B (human)", "result": 100, "unit": "%"}, {"measurement": "kinase still bound, per cent of control", "setting": "WEE2 (human)", "result": 100, "unit": "%"}]}
{"compound": "Cc1cc([C@@H](C)Nc2ccccc2C(=O)O)c2nc(N3CCOCC3)cc(=O)n2c1", "values": [{"measurement": "kinase still bound, per cent of control", "setting": "ABL2 (human)", "result": 95, "unit": "%"}, {"measurement": "kinase still bound, per cent of control", "setting": "ANKK1 (human)", "result": 100, "unit": "%"}, {"measurement": "kinase still bound, per cent of control", "setting": "AURKC (human)", "result": 93, "unit": "%"}, {"measurement": "kinase still bound, per cent of control", "setting": "BLK (human)", "result": 99, "unit": "%"}, {"measurement": "kinase still bound, per cent of control", "setting": "BRSK2 (human)", "result": 100, "unit": "%"}, {"measurement": "kinase still bound, per cent of control", "setting": "CAMK1G (human)", "result": 91, "unit": "%"}, {"measurement": "kinase still bound, per cent of control", "setting": "CAMK4 (human)", "result": 100, "unit": "%"}, {"measurement": "kinase still bound, per cent of control", "setting": "CDK14 (human)", "result": 100, "unit": "%"}, {"measurement": "kinase still bound, per cent of control", "setting": "CIT (human)", "result": 89, "unit": "%"}, {"measurement": "kinase still bound, per cent of control", "setting": "CSNK1E (human)", "result": 98, "unit": "%"}, {"measurement": "kinase still bound, per cent of control", "setting": "CSNK1G3 (human)", "result": 100, "unit": "%"}, {"measurement": "kinase still bound, per cent of control", "setting": "CaMK1 (human)", "result": 100, "unit": "%"}, {"measurement": "kinase still bound, per cent of control", "setting": "DAPK3 (human)", "result": 100, "unit": "%"}, {"measurement": "kinase still bound, per cent of control", "setting": "[1]", "result": 100, "unit": "%"}, {"measurement": "kinase still bound, per cent of control", "setting": "EPHA7 (human)", "result": 89, "unit": "%"}, {"measurement": "kinase still bound, per cent of control", "setting": "[2]", "result": 44, "unit": "%"}, {"measurement": "kinase still bound, per cent of control", "setting": "MAP3K3 (human)", "result": 87, "unit": "%"}, {"measurement": "kinase still bound, per cent of control", "setting": "MAP3K4 (human)", "result": 100, "unit": "%"}, {"measurement": "kinase still bound, per cent of control", "setting": "MAP4K5 (human)", "result": 96, "unit": "%"}, {"measurement": "kinase still bound, per cent of control", "setting": "MAPK11 (human)", "result": 91, "unit": "%"}, {"measurement": "kinase still bound, per cent of control", "setting": "MELK (human)", "result": 100, "unit": "%"}, {"measurement": "kinase still bound, per cent of control", "setting": "MYLK (human)", "result": 70, "unit": "%"}, {"measurement": "kinase still bound, per cent of control", "setting": "NEK5 (human)", "result": 100, "unit": "%"}, {"measurement": "kinase still bound, per cent of control", "setting": "NTRK1 (human)", "result": 88, "unit": "%"}, {"measurement": "kinase still bound, per cent of control", "setting": "NUAK2 (human)", "result": 84, "unit": "%"}, {"measurement": "kinase still bound, per cent of control", "setting": "PDPK1 (human)", "result": 100, "unit": "%"}, {"measurement": "kinase still bound, per cent of control", "setting": "PIP4K2B (human)", "result": 100, "unit": "%"}, {"measurement": "kinase still bound, per cent of control", "setting": "PKN1 (human)", "result": 100, "unit": "%"}, {"measurement": "kinase still bound, per cent of control", "setting": "PLK3 (human)", "result": 89, "unit": "%"}, {"measurement": "kinase still bound, per cent of control", "setting": "PRKCD (human)", "result": 82, "unit": "%"}, {"measurement": "kinase still bound, per cent of control", "setting": "PTK2B (human)", "result": 100, "unit": "%"}, {"measurement": "kinase still bound, per cent of control", "setting": "PTK6 (human)", "result": 75, "unit": "%"}, {"measurement": "kinase still bound, per cent of control", "setting": "RIOK1 (human)", "result": 100, "unit": "%"}, {"measurement": "kinase still bound, per cent of control", "setting": "STK35 (human)", "result": 95, "unit": "%"}, {"measurement": "kinase still bound, per cent of control", "setting": "TLK1 (human)", "result": 96, "unit": "%"}, {"measurement": "kinase still bound, per cent of control", "setting": "TNIK (human)", "result": 98, "unit": "%"}, {"measurement": "kinase still bound, per cent of control", "setting": "TNK1 (human)", "result": 100, "unit": "%"}, {"measurement": "kinase still bound, per cent of control", "setting": "TNNI3K (human)", "result": 88, "unit": "%"}, {"measurement": "kinase still bound, per cent of control", "setting": "TSSK1B (human)", "result": 100, "unit": "%"}, {"measurement": "kinase still bound, per cent of control", "setting": "WEE2 (human)", "result": 100, "unit": "%"}]}
